In patent publication US20240182413A1, “INSECTICIDAL COMPOUNDS” (Pluton Biosciences, Inc., priority 2022, published 2024):
Values joined by “and” are separate entries in the source; they are usually repeats but may differ in a detail not shown here. Equal entries are not always repeated. Where two headings read alike, the source gives them in different places.

Key:
[1] = test system: Spodoptera frugiperda (fall armyworm) first instar larvae; assay: Spodoptera frugiperda killing assay (diet-surface overlay); assay type: in vivo; settings: for LC50: Spodoptera frugiperda
Procedure: Insect killing assays. Each compound was dissolved in dimethyl sulfoxide (DMSO). Killing dose curves were constructed for each compound by producing a two-fold dilution series of the compound (e.g., comprising approximately 16 serial dilutions of a stock for 3,3′-diindolylmethane and 3-((1H-Indol-2-yl)methyl)-1H-indole and comprising approximately 12 serial dilutions of a stock for 3,3′-diindolyl and 3,3′-(pyridin-4-ylmethylene)bis(1H-indole)). Dilutions were made in sterile NYSM broth as described above. The two-fold dilution series were tested in a killing bioassay as described below. Data were collected to construct a dose curve and determine the half-maximal lethal concentration (LC50) value.
Bioassays were performed using first instar larvae of the Lepidopteran species Spodoptera frugiperda (fall armyworm), with an N=16 for each concentration of compound tested. S. frugiperda larvae were purchased from Benzon Research, Inc. (Carlisle, PA). A diet-surface overlay format was used in which 1 milliliter of standard lepidopteran diet was placed in each well. One hundred microliters of sample were pipetted into each well and allowed to dry. A DMSO control was included with each set of samples.
During the development of embodiments of the technology described herein, experiments were conducted to test the killing of arundine against a panel of 11 insect species. […] Briefly, arundine was dissolved in dimethyl sulfoxide (DMSO). Killing dose curves were constructed by producing a two-fold dilution series of arundine. Dilutions were made in sterile NYSM as described. The two-fold dilution series were tested in a killing bioassay performed using first instar larvae of the species listed in Table 4, with an N=16 for each concentration of compound tested. A diet-surface overlay format was used in which 1 milliliter of standard lepidopteran diet was placed in each well. One hundred microliters of sample were pipetted into each well and allowed to dry. A DMSO control was included with each set of samples. […] Data were collected to construct a dose curve and determine the half-maximal lethal concentration (LC50) value.

[2] = test system: Aedes aegypti larvae; assay: Aedes aegypti killing assay (larval bioassay, two-fold dilution series); assay type: in vivo; settings: Aedes aegypti, 72 h
Procedure: Insect killing assays. Each compound was dissolved in dimethyl sulfoxide (DMSO). Killing dose curves were constructed for each compound by producing a two-fold dilution series for each compound (e.g., comprising approximately 20 serial dilutions of a stock). Dilutions were made in sterile nutrient yeast extract salt medium (NYSM) broth. The NYSM contained 8 g/L nutrient broth powder, 0.5 g/L yeast extract, 1 mM MgCl2, 700 μM CaCl2, and 50 μM MnCl2 in water. The two-fold dilution series were tested in a killing bioassay as described below. Data were collected to construct a dose curve and determine the half-maximal lethal concentration (LC50) value.
Bioassays were performed using second or third instar Aedes aegypti larvae, with biological replication. Ae. aegpyti larvae were purchased from Benzon Research, Inc. (Carlisle, PA). Larvae were washed with sterile water before transfer to 24-well assay plates containing 1 mL of sterile water in each well. Each well contained 5 larvae. The final DMSO concentration in each assay well was 1%. Larval mortality was scored for each well at 24-hour timepoints after application. […] In Table 1, mean mortalities and standard deviations were calculated from at least three independent biological replicates. […] LC50 values were calculated using GraphPad Prism software.

[3] = test system: Aedes aegypti; settings: previously shown; cited from earlier work
[4] = test system: fall armyworm (Spodoptera frugiperda); settings: after seven days of exposure; cited from earlier work
[5] = test system: S. exigua (Beet armyworm) first instar larvae; assay: Insect panel killing assay (diet-surface overlay); assay type: in vivo
Procedure: (§1) During the development of embodiments of the technology described herein, experiments were conducted to test the killing of arundine against a panel of 11 insect species. Killing assays were performed as described in Example 2 for Spodoptera frugiperda. Briefly, arundine was dissolved in dimethyl sulfoxide (DMSO). Killing dose curves were constructed by producing a two-fold dilution series of arundine. Dilutions were made in sterile NYSM as described. The two-fold dilution series were tested in a killing bioassay performed using first instar larvae of the species listed in Table 4, with an N=16 for each concentration of compound tested. A diet-surface overlay format was used in which 1 milliliter of standard lepidopteran diet was placed in each well. One hundred microliters of sample were pipetted into each well and allowed to dry. A DMSO control was included with each set of samples. Spinosad (MilliporeSigma, catalog #33706) was used as a positive control for insecticidal activity, and water was used as an additional negative control. Data were collected to construct a dose curve and determine the half-maximal lethal concentration (LC50) value. In Table 4, % of insects killed is provided in the table cells for the concentrations listed at the top (2500, 625, 156, and 0 μg/mL arundine).

[6] = test system: T. ni (Cabbage looper) first instar larvae; assay: Insect panel killing assay (diet-surface overlay); assay type: in vivo
Procedure: as §1

[7] = test system: H. virescens (Tobacco budworm) first instar larvae; assay: Insect panel killing assay (diet-surface overlay); assay type: in vivo
Procedure: as §1

[8] = test system: C. pomonella (Codling moth) first instar larvae; assay: Insect panel killing assay (diet-surface overlay); assay type: in vivo
Procedure: as §1

[9] = test system: D. grandiosella (Southwestern corn borer) first instar larvae; assay: Insect panel killing assay (diet-surface overlay); assay type: in vivo
Procedure: as §1

[10] = test system: D. saccharalis (Sugarcane borer) first instar larvae; assay: Insect panel killing assay (diet-surface overlay); assay type: in vivo
Procedure: as §1

[11] = test system: H. zea (Corn earworm) first instar larvae; assay: Insect panel killing assay (diet-surface overlay); assay type: in vivo
Procedure: as §1

[12] = test system: A. gemmatalis (Velvetbean caterpillar) first instar larvae; assay: Insect panel killing assay (diet-surface overlay); assay type: in vivo
Procedure: as §1

[13] = test system: S. eridania (Southern armyworm) first instar larvae; assay: Insect panel killing assay (diet-surface overlay); assay type: in vivo
Procedure: as §1

[14] = test system: C. includens (Soybean looper) first instar larvae; assay: Insect panel killing assay (diet-surface overlay); assay type: in vivo
Procedure: as §1

[15] = test system: Vip3A resistant FAW; assay: Killing of Vip3A resistant fall armyworm; assay type: in vivo, Spodoptera frugiperda; settings: 1000 ppm BIM compound, 20 μl on diet surface, 5-7 days
Procedure: (§2) During the development of embodiments of the technology provided herein, experiments were conducted to test the killing potency of arundine-derived BIM compounds against strains of fall armyworm (FAW) that are resistant to Bacillus thuringiensis (Bt) insecticidal proteins (e.g., Cry1Fa and Vip3A). Susceptible FAW (Spodoptera frugiperda) was obtained from Benzon Research Inc, Lancaster, PA. Cry1Fa resistant FAW originating from Puerto Rico was reared in a facility by Genective (Weldon, IL). Vip3A resistant FAW originating from southern US was reared in a facility by Genective (Weldon, IL).
(§3) FAW eggs were incubated at approximately 26° C. at 50% relative humidity until eclosion (approximately 3 days) and the hatch was timed to within 12 hours of infesting the diet plates. BIM compounds were obtained from frozen stocks, thawed, suspended in 5% DMSO along with NYSM buffer to provide a solution of 2000 ppm BIM compound in a total volume of 1.0 ml, and stored at −20° C. For testing, a single tube of each BIM compound sample was thawed at 4° C. NYSM buffer was warmed to room temperature. A volume of 750 μl. NYSM buffer was added to 750 μl from each 1.0-ml volume to prepare samples of 1.5 ml BIM compound at 1000 ppm for testing. A total of three BIM preparations per BIM molecule were prepared and tested for killing potency. Compounds tested were BIM-1, 11, 25, 26, 28, 29, 30, 32, 34. A solution of 5% DMSO in NYSM buffer was used as a negative control.
A standard commercially available semi-solid lepidopteran diet was prepared following manufacturer's instructions (Frontier, multi-species diet). […] LB+Kanamycin (antibiotic) growth media is the negative control for bacterial cultures. […]
(§4) For each of 3 replicates, 200 μl of diet was prepared in wells of a 96-well plate and the diet plates were warmed to room temperature prior to dispensing samples. […] All bioassays were assessed visually to record larval mortality and growth inhibition.

[16] = test system: Cry1Fa resistant FAW; assay: Killing of Cry1Fa resistant fall armyworm; assay type: in vivo, Spodoptera frugiperda; settings: 1000 ppm BIM compound, 20 μl on diet surface; neonates; 5-7 days
Procedure: as §2, §3
A standard commercially available semi-solid lepidopteran diet was prepared following manufacturer's instructions (Frontier, multi-species diet). […] LB+Kanamycin (antibiotic) growth media is the negative control for bacterial cultures. Cry1Fa is a positive control prepared as E. coli cells expressing the full-length Cry1Fa protein resuspended in PBS buffer at half the volume of the original growth culture resulting in 2× concentration of cells. Vip3A is a positive control prepared as E. coli whole cell culture expressing Vip3A.
For each of 3 replicates, 200 μl of diet was prepared in wells of a 96-well plate and the diet plates were warmed to room temperature prior to dispensing samples. After 750 μl NYSM buffer was added to 750 μl from each 1.0-ml volume to prepare samples of 1.5 ml BIM compound at 1000 ppm for testing, BIM solutions were vortexed and 20 μl were dispensed onto the diet surface in each of 16 wells using a repeating pipettor. These steps were repeated for each sample and control for each insect population being tested. BIM compound and control solutions were allowed to absorb into the diet in a biosafety hood until the diet surface was visibly dry. Once dry, wells were sealed with a clear membrane. Two pin holes were poked through the membrane in each well to maintain appropriate humidity level and aeration. Each well was infested with a single neonate larva, and the wells were resealed with perforated membrane to prevent escape. The infested plates were incubated in environmental chambers at 26° C. and 50% relative humidity for 5-7 days. All bioassays were assessed visually to record larval mortality and growth inhibition.

[17] = test system: fall armyworm (FAW), susceptible and the two resistant varieties (Cry1 and Vip3A); assay: Killing of susceptible and Bt-resistant fall armyworm (strain not specified); assay type: in vivo, Spodoptera frugiperda; settings: 1000 ppm BIM compound, 20 μl on diet surface, neonate larvae, at 7 days
Procedure: as §2
FAW eggs were incubated at approximately 26° C. at 50% relative humidity until eclosion (approximately 3 days) and the hatch was timed to within 12 hours of infesting the diet plates. BIM compounds were obtained from frozen stocks, thawed, suspended in 5% DMSO along with NYSM buffer to provide a solution of 2000 ppm BIM compound in a total volume of 1.0 ml, and stored at −20° C. For testing, a single tube of each BIM compound sample was thawed at 4° C. NYSM buffer was warmed to room temperature. A volume of 750 μl. […]
as §4

[18] = first instar larvae, calculated from killing dose curves FIG. 3D to 3NN, read-out: LD50 (the source's name)

Compound: c1ccc2[nH]c(Cc3c[nH]c4ccccc34)cc2c1 [3-((1H-indol-2-yl)methyl)-1H-indole, 3-((1H-Indol-2-yl)methyl)-1H-indole]
- LC50 ([1]; first instar larvae, N=16 per concentration, representative curve fit): 598 µg/mL and 2.4 mM
- activity against S. frugiperda ([1]; first instar larvae): active
- LC50 [2]: 5.5 µg/mL and 22.5 µM
- activity against Aedes aegypti [3]: active

Compound: c1ccc2c(Cc3c[nH]c4ccccc34)c[nH]c2c1 [Arundine, 3,3′-diindolylmethane]
- % killing ([1]; 156 μg/mL arundine): 40%
- % killing ([1]; 625 μg/mL arundine): 63%
- % killing ([1]; 2500 μg/mL arundine): 97%
- LC50 [1, 18]: 1820 µM
- mortality [4]: greater than 95%
- % killing ([5]; 156 μg/mL arundine): 72%
- % killing ([5]; 625 μg/mL arundine): 94%
- % killing ([5]; 2500 μg/mL arundine): 72%
- % killing ([6]; 156 μg/mL arundine): 41%
- % killing ([6]; 625 μg/mL arundine): 72%
- % killing ([6]; 2500 μg/mL arundine): 93%
- % killing ([7]; 156 μg/mL arundine): 74%
- % killing ([7]; 625 μg/mL arundine): 74%
- % killing ([7]; 2500 μg/mL arundine): 87%
- % killing ([8]; 156 μg/mL arundine): 21%
- % killing ([8]; 625 μg/mL arundine): 50%
- % killing ([8]; 2500 μg/mL arundine): 39%
- % killing ([9]; 156 μg/mL arundine): 47%
- % killing ([9]; 625 μg/mL arundine): 90%
- % killing ([9]; 2500 μg/mL arundine): 83%
- % killing ([10]; 156 μg/mL arundine): 100%
- % killing ([10]; 625 μg/mL arundine): 100%
- % killing ([10]; 2500 μg/mL arundine): 100%
- % killing ([11]; 156 μg/mL arundine): 40%
- % killing ([11]; 625 μg/mL arundine): 50%
- % killing ([11]; 2500 μg/mL arundine): 90%
- % killing ([12]; 156 μg/mL arundine): 100%
- % killing ([12]; 625 μg/mL arundine): 70%
- % killing ([12]; 2500 μg/mL arundine): 97%
- % killing ([13]; 156 μg/mL arundine): 23%
- % killing ([13]; 625 μg/mL arundine): 100%
- % killing ([13]; 2500 μg/mL arundine): 100%
- % killing ([14]; 156 μg/mL arundine): 27%
- % killing ([14]; 625 μg/mL arundine): 50%
- % killing ([14]; 2500 μg/mL arundine): 80%

Compound: Clc1ccc2c(Cc3c[nH]c4cc(Cl)ccc34)c[nH]c2c1 [BIM-11]
- LC50 [1, 18]: 1180 µM
- lethality ([15]; Vip3A-resistant neonates): 100%

Compound: Clc1ccc2c(C(c3ccccc3)c3c[nH]c4cc(Cl)ccc34)c[nH]c2c1 [BIM-25]
- LC50 [1, 18]: 504 µM
- lethality ([15]; neonates): strong lethality
- lethality [16]: strong lethality

Compound: Clc1ccc2c(C(Cc3ccccc3)c3c[nH]c4cc(Cl)ccc34)c[nH]c2c1 [BIM-26]
- LC50 [1, 18]: 581 µM
- lethality [17]: 60-70%

Compound: O=[N+]([O-])c1ccc(C(c2c[nH]c3cc(Cl)ccc23)c2c[nH]c3cc(Cl)ccc23)cc1 [BIM-32]
- lethality ([15]; neonates): strong lethality
- lethality [16]: strong lethality
